Read-outs that look alike come from different tables or passages of the source.
Columns and labels:
[1] = tested on: 3D7-strain P. falciparum asexual parasites; assay: P. falciparum asexual growth inhibition assay (Pf GIA); type: cell-based, Plasmodium falciparum
Procedure, shortened: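 LDH readout: absorbance at 650 nm after 10 min at room temperature with lactate/APAD/NBT/diaphorase mix on thawed plates. Cultures (0.25% parasitemia, 2% hematocrit) were treated 72 h at 37°C in low-oxygen gas. Inhibition was normalised to 50 μM chloroquine and DMSO; n=3 biological replicates.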

HepG2 cells [2] = assay: HepG2 cytotoxicity assay; conditions: for IC50: read-out: HepG2 cytotoxicity assay IC50, dose response confirmation; for HepG2 cytoxicity: value reported with the Pb ODA screen, this manuscript
Procedure, shortened: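 HepG2 cells, 2,500 per well in MEM with 10% FBS and 1% NEAA, exposed to compounds for 48 h at 37°C, 5% CO2. Viability read by fluorescence; percent inhibition relative to 50 μM doxorubicin and DMSO controls.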

[3] = tested on: P. berghei ookinete development; conditions: for % inhibition, Replicate A / % inhibition, Replicate B: primary screen at 1 μM
[4] = tested on: P. falciparum late stage (stages IV-V) gametocytes; parameters: method as in Almela et al 2016; conditions: TCAMS screen comparison; ref Almela et al 2016; read-out: Pf GCT ATP IC50; cited from earlier work
[5] = tested on: P. falciparum female gametocytes; parameters: method as in Miguel-Blanco et al 2017; conditions: TCAMS screen comparison; ref Miguel-Blanco et al 2017; read-out: Pf FGAA IC50; cited from earlier work
HepG2 cells [6] = conditions: cited from earlier work
[7] = tested on: P. falciparum female gametocytes; assay: P. falciparum female gametogenesis assay (Pf FGAA); conditions: 1: YES; 0: NO
[8] = tested on: P. falciparum late stage (stages IV-V) gametocytes; assay: P. falciparum late stage gametocyte ATP depletion assay (Pf GC-ATP); conditions: 1: YES; 0: NO
[9] = tested on: P. berghei ookinete development; assay: microbe, parasite or virus in culture; conditions: Plasmodium berghei
[10] = dose response confirmation, read-out: Pf asexual growth inhibition assays IC50
[11] = HepG2 cytotoxicity unified across the three screens
[12] = read-out: Pb ODA IC50, this manuscript
[13] = read-out: Pb Ookinete development assay IC50, dose response confirmation
[14] = value reported with the Pf FGAA screen, ref Miguel-Blanco et al 2017
[15] = value reported with the Pf GCT ATP screen, ref Almela et al 2016

SMILES	IC50 [1, 10] [nM]	Unified cytotox (HepG2 cells [2]; [11]) [µM]	IC50 (HepG2 cells [2]) [nM]	Is compound selective in assay? Pb ODA active? ([3]; 1: YES, 0: NO)	% inhibition, Replicate A [3] [%]	% inhibition, Replicate B [3] [%]	IC50 [3, 12] [nM]	IC50 [3, 13] [nM]	IC50 [4] [nM]	IC50 [5] [nM]	HepG2 cytoxicity (HepG2 cells [6]; [14]) [µM]	HepG2 cytoxicity (HepG2 cells [6]; [15]) [µM]	Is compound selective in assay? Pf FGAA active? [7]	Is compound selective in assay? Pf GC-ATP active? [8]	HepG2 cytoxicity (HepG2 cells [2]) [µM]	other results
Cc1occc1C(=O)Nc1nc(-c2ccccn2)nc2ccsc12 [TCMDC-135244]	656	0.87	870	0 (0: NO)	79.17	64.59	1340	1340	300	60	>100	<1.56	1 (1: YES)	0 (0: NO)		
ON=C1CCc2cc(-c3cc(-c4ccc(OC5CCNCC5)cc4)oc3-c3ccncc3)ccc21 [TCMDC-141381]	123	5.92	5250	0 (0: NO)	75.99	61.54	1410	1410	270	200	5.01	7.5	1 (1: YES)	1 (1: YES)	5.25	
C[C@@H]1C[C@@H]([C@H](O)CC2CC(=O)NC(=O)C2)C(=O)[C@@H](C)C1 [TCMDC-125838]			100000													IC50 ([1]; Plasmodium falciparum, 3D7, read-out: Pf asexual growth inhibition assays IC50): 596 nM; Unified cytotox (HepG2 cells [2]; unified HepG2 value across the three screens): 100.00 µM; Is compound selective in assay? Pb ODA active? [3]: 1 (key: 1: YES; 0: NO); inhibition at 1 µM ([9]; read-out: % inhibition, Replicate A): 110%; inhibition at 1 µM ([9]; read-out: % inhibition, Replicate B): 117%; IC50 ([9]; read-out: Pb ODA IC50 (µM)): 0.11 µM; IC50 ([9]; read-out: Pb Ookinete development assay IC50): 0.109 µM
CC(=O)c1ccc2nc[nH]c(=O)c2c1 [TCMDC-138172]	287	3.74	1240	0 (0: NO)	76.19	65.80	500	503	400	980	6.24	<1.56	0 (0: NO)	0 (0: NO)	1.24	
